Measurements published in US10632195B2, “Pharmaceutical device for electric-field assisted administration of Tapentadol and method of administering Tapentadol with same” (Gruenenthal GmbH, priority 2012, dated 2020).
Values joined by “and” are separate entries in the source; they are usually repeats but may differ in a detail not shown here. Identical values can stand only once. Counter-ions that a name gives are not always drawn.

Experiment: iontophoretic transdermal delivery of Tapentadol hydrochloride, 24 hours of iontophoresis (example 1b), side-bi-side diffusion cells, constant current 0.25 mA (0.4 mA/cm2), donor 100 mM in water
Format: in vitro ADME, pig
Conditions: for drug flux across the skin, Mean ± SD / drug flux across the skin, as tapentadol base, Mean ± SD / cumulative, iontophoretic delivery across the skin, Mean ± SD / cumulative, iontophoretic delivery across the skin, as tapentadol base, Mean ± SD: n=6; for drug flux across the skin, Mean ± SD / drug flux across the skin, as tapentadol base, Mean ± SD / cumulative, iontophoretic delivery across the skin, Mean ± SD / cumulative, iontophoretic delivery across the skin, as tapentadol base, Mean ± SD / drug flux across the skin / cumulative, iontophoretic delivery across the skin: patch area 0.64 cm^2; for drug flux across the skin / cumulative, iontophoretic delivery across the skin: single cells 1-6, hydrochloride; for cumulative, iontophoretic delivery across the skin: listed as Tapentadol HCl
Experimental: Determination of the rate of iontophoretic transdermal delivery of Tapentadol hydrochloride for a period of 24 hours of iontophoresis
Tapentadol hydrochloride (batch no. A0012) was employed. The components of the phosphate buffered saline (PBS) and the mobile phase used were from Sigma, UK. The pig skin was obtained from a local farm, washed with water, excess hair was carefully trimmed with scissors, and the skin was dermatomed using a Zimmer dermatome set at a nominal thickness of 750 μm. The skin was then stored at −20° C.
The drug was delivered from the anode, using side-bi-side (horizontal) glass diffusion cells (n=6) supplied by Permegear, USA. The porcine skin membrane was excised from the dorsal surface.
Electrodes were prepared in-house and were made of silver/silver chloride. To pass current for 24 hours in this set-up, it was necessary for the donor compartment to contain 76 mM chloride ions.
The anode was placed in the donor chamber; the donor solution was 3 ml of Tapentadol hydrochloride (100 mM, i.e. 25.78 mg/ml of Tapentadol hydrochloride, 22.13 mg/ml of base) in water. The cathode was placed in the receptor chamber, which contained 3 ml of phosphate-buffered saline, pH 7.4. Both chambers were stirred by magnets.
Current was applied for a total of 8 or 24 hours, respectively.
The receptor solution was sampled and assayed at 0.5, 1, 2, 3, 4, 5, 6, 7, 8 (example 1a) and optionally 24 hours (example 1b) post-initiation of the current. During the 8 hour experiment (example 1a), at 0.5, 1, 2, and 3 hours, 1 ml of receptor solution was removed and replaced with fresh PBS. As it was clear that the amount of Tapentadol in the receptor solution was sufficient for quantitation by HPLC, at the subsequent sampling times of 4, 5, 6, 7 and 8 hours, the entire receptor solution (3 ml) was removed and replaced with fresh PBS, to ensure sink conditions in the receptor. During the 24 hour experiment (example 1b), the entire receptor solution (3 ml) was removed and replaced with fresh PBS at every sampling point.
The concentrations of Tapentadol hydrochloride in the receptor chamber samples were determined by HPLC. A mobile phase consisting of 300:700:1 methanol:water:phosphoric acid was pumped (1 ml/min) through a Acclaim RP-18 (4×150 mm) reverse-phase column (Dionex, UK) at 35° C. Tapentadol concentrations were quantified via their UV absorbance at 215 nm using a calibration curve diluted in PBS at pH 7.4. Injection volume was 20 μl and the retention time for Tapentadol hydrochloride was 12 minutes and the total run time was 16 minutes.
A Tapentadol-free “blank” diffusion cell (donor was saline only) was also prepared and the receptor solution was analysed after 8 hours to confirm no peaks from any component of the skin co-eluted with the Tapentadol hydrochloride.
Voltages were as expected for 6 cells in series (range was 6 to 28 volts). The pH of the donor solution was measured after termination of 24 hours of iontophoresis, and ranged from 6.47 to 6.99. The pH of drug in the donor prior to commencing the experiment was 5.07 (5.34 for the 8 hour iontophoresis).

[1] = 24 hours iontophoresis, as tapentadol hydrochloride

In the case of CC[C@@H](c1cccc(O)c1)[C@@H](C)CN(C)C [Tapentadol hydrochloride], the “drug flux across the skin, Mean ± SD” value (0.5 h, iontophoresis) is reported as 3 ± 2 µg/h, the “drug flux across the skin, as tapentadol base, Mean ± SD” value (0.5 h, iontophoresis) is reported as 3 ± 2 µg/h and the “cumulative, iontophoretic delivery across the skin, Mean ± SD” value (0.5 h) is reported as 2 ± 1 µg. The “cumulative, iontophoretic delivery across the skin, as tapentadol base, Mean ± SD” value (shortened to “cumulative … as tapentadol base, Mean ± SD”) (0.5 h) was 1 ± 1 µg, the “drug flux across the skin, Mean ± SD” value (1 h, iontophoresis) was 48 ± 22 µg/h and the “drug flux across the skin, as tapentadol base, Mean ± SD” value (1 h, iontophoresis) was 41 ± 19 µg/h. For the same compound, the “cumulative, iontophoretic delivery across the skin, Mean ± SD” value (1 h) was 26 ± 12 µg, the “cumulative … as tapentadol base, Mean ± SD” value (1 h) was 22 ± 10 µg and the “drug flux across the skin, Mean ± SD” value (1.5 h, iontophoresis) was 96 ± 22 µg/h. The “drug flux across the skin, as tapentadol base, Mean ± SD” value (1.5 h, iontophoresis) was 82 ± 19 µg/h, the “cumulative, iontophoretic delivery across the skin, Mean ± SD” value (1.5 h) was 74 ± 22 µg and the “cumulative … as tapentadol base, Mean ± SD” value (1.5 h) was 63 ± 19 µg. For the same compound, the “drug flux across the skin, Mean ± SD” value (2 h, iontophoresis) was 144 ± 38 µg/h, the “drug flux across the skin, as tapentadol base, Mean ± SD” value (2 h, iontophoresis) was 124 ± 33 µg/h and the “cumulative, iontophoretic delivery across the skin, Mean ± SD” value (2 h) was 146 ± 41 µg. For the same compound, the “cumulative … as tapentadol base, Mean ± SD” value (2 h) was 125 ± 35 µg, the “drug flux across the skin, Mean ± SD” value (3 h, iontophoresis) was 176 ± 32 µg/h and the “drug flux across the skin, as tapentadol base, Mean ± SD” value (3 h, iontophoresis) was 151 ± 28 µg/h. The “drug flux across the skin” value (3 h, iontophoresis) was 128 µg/h and 147 µg/h and 203 µg/h and 208 µg/h and 181 µg/h and 190 µg/h, the “cumulative, iontophoretic delivery across the skin, Mean ± SD” value (3 h) was 322 ± 72 µg and the “cumulative … as tapentadol base, Mean ± SD” value (3 h) was 276 ± 61 µg. The “cumulative, iontophoretic delivery across the skin” value (3 h) was 224 µg and 259 µg and 364 µg and 419 µg and 315 µg and 348 µg, the “drug flux across the skin, Mean ± SD” value (4 h, iontophoresis) was 232 ± 27 µg/h and the “drug flux across the skin, as tapentadol base, Mean ± SD” value (4 h, iontophoresis) was 199 ± 23 µg/h. For the same compound, the “drug flux across the skin” value (4 h, iontophoresis) was 184 µg/h and 217 µg/h and 238 µg/h and 257 µg/h and 248 µg/h, the “cumulative, iontophoretic delivery across the skin, Mean ± SD” value (4 h) was 554 ± 96 µg and the “cumulative … as tapentadol base, Mean ± SD” value (4 h) was 475 ± 83 µg. The “cumulative, iontophoretic delivery across the skin” value (4 h) was 408 µg and 476 µg and 602 µg and 676 µg and 563 µg and 596 µg, the “drug flux across the skin, Mean ± SD” value (5 h, iontophoresis) was 270 ± 22 µg/h and the “drug flux across the skin, as tapentadol base, Mean ± SD” value (5 h, iontophoresis) was 232 ± 19 µg/h. For the same compound, the “drug flux across the skin” value (5 h, iontophoresis) was 227 µg/h and 271 µg/h and 283 µg/h and 285 µg/h and 284 µg/h and 272 µg/h, the “cumulative, iontophoretic delivery across the skin, Mean ± SD” value (5 h) was 824 ± 116 µg and the “cumulative … as tapentadol base, Mean ± SD” value (5 h) was 707 ± 99 µg. For the same compound, the “cumulative, iontophoretic delivery across the skin” value (5 h) was 635 µg and 747 µg and 885 µg and 962 µg and 847 µg and 867 µg, the “drug flux across the skin, Mean ± SD” value (6 h, iontophoresis) was 277 ± 18 µg/h and the “drug flux across the skin, as tapentadol base, Mean ± SD” value (6 h, iontophoresis) was 238 ± 16 µg/h. The “drug flux across the skin” value (6 h, iontophoresis) was 243 µg/h and 282 µg/h and 298 µg/h and 277 µg/h and 286 µg/h and 274 µg/h, the “cumulative, iontophoretic delivery across the skin, Mean ± SD” value (6 h) was 1101 ± 129 µg and the “cumulative … as tapentadol base, Mean ± SD” value (6 h) was 945 ± 111 µg. The “cumulative, iontophoretic delivery across the skin” value (6 h) was 878 µg and 1029 µg and 1183 µg and 1239 µg and 1133 µg and 1142 µg, the “drug flux across the skin, Mean ± SD” value (7 h, iontophoresis) was 282 ± 18 µg/h and the “drug flux across the skin, as tapentadol base, Mean ± SD” value (7 h, iontophoresis) was 242 ± 15 µg/h. The “drug flux across the skin” value (7 h, iontophoresis) was 248 µg/h and 292 µg/h and 282 µg/h and 295 µg/h, the “cumulative, iontophoretic delivery across the skin, Mean ± SD” value (7 h) was 1382 ± 144 µg and the “cumulative … as tapentadol base, Mean ± SD” value (7 h) was 1187 ± 123 µg. For the same compound, the “cumulative, iontophoretic delivery across the skin” value (7 h) was 1125 µg and 1322 µg and 1465 µg and 1534 µg and 1425 µg and 1424 µg, the “drug flux across the skin, Mean ± SD” value (8 h, iontophoresis) was 288 ± 30 µg/h and the “drug flux across the skin, as tapentadol base, Mean ± SD” value (8 h, iontophoresis) was 247 ± 26 µg/h. For the same compound, the “drug flux across the skin” value (8 h, iontophoresis) was 254 µg/h and 331 µg/h and 256 µg/h and 302 µg/h and 282 µg/h, the “cumulative, iontophoretic delivery across the skin, Mean ± SD” value (8 h) was 1671 ± 155 µg and the “cumulative … as tapentadol base, Mean ± SD” value (8 h) was 1434 ± 133 µg. For the same compound, the “cumulative, iontophoretic delivery across the skin” value (8 h) was 1380 µg and 1653 µg and 1721 µg and 1836 µg and 1727 µg and 1706 µg, the “drug flux across the skin, Mean ± SD” value (24 h, iontophoresis) was 309 ± 26 µg/h and the “drug flux across the skin, as tapentadol base, Mean ± SD” value (24 h, iontophoresis) was 265 ± 23 µg/h. The “drug flux across the skin” value (24 h, iontophoresis) was 300 µg/h and 342 µg/h and 330 µg/h and 323 µg/h and 282 µg/h and 277 µg/h, the “cumulative, iontophoretic delivery across the skin, Mean ± SD” value (24 h) was 6616 ± 468 µg and the “cumulative … as tapentadol base, Mean ± SD” value (24 h) was 5680 ± 402 µg. The “cumulative, iontophoretic delivery across the skin” value (24 h) was 6185 µg and 7120 µg and 7001 µg and 7000 µg and 6247 µg and 6145 µg, the “cumulative amount delivered across a 0.64 cm2 area of skin, as tapentadol base” value (24 hours iontophoresis) was 5.7 mg and the “cumulative amount delivered per 1 cm2, as tapentadol base” value (24 hours iontophoresis) was 8.9 mg. For the same compound, the “cumulative amount delivered across a 0.64 cm2 area of skin” value [1] was 6.6 mg, the “cumulative amount delivered per 1 cm2” value [1] was 10.3 mg and the “time by which steady-state flux appears to have been reached” value (example 1b, iontophoresis) was 5 to 6 h. The “difference between flux during iontophoresis and flux due to passive diffusion” value (iontophoresis vs comparative example 1b) was 30 fold.
